Laboratory results taken from patent US20070259857A1, “Amorphous form of Olanzapine” (priority 2003, published 2007).

Test: Storage stability of ground amorphous olanzapine at room temperature, by XRPD analysis
Format: physicochemical
Conditions: ground sample of Example One stored at room temperature for 13 weeks
Procedure: Figure Two is an XRPD spectrum of amorphous olanzapine. X-ray powder diffraction (XRPD) was performed on a Bruker D8 advance difractometer, at 25° C. between the angles of 4° and 50° 2 theta.
The sample of ground olanzapine was stored at room temperature for 13 weeks for stability testing using XRPD analysis.

In the case of `Cc1cc2c(s1)Nc1ccccc1N=C2N1CCN(C)CC1` [olanzapine, 2-methyl-4-(4-methyl-1-piperazinyl)-10H-thieno[2,3-b][1,5]benzodiazepine], the “Stability testing using XRPD analysis: difference in XRPD spectrum between the original and the stored sample” value is reported as “No difference was observed”.
